Reference: patent publication US20250296916A1, “BICYCLIC PIPERAZINONES AND THERAPEUTIC USES THEREOF” (Cytokinetics, Inc., priority 2022, published 2025)

tested on: rabbit skeletal myofibrils (approximately 90% fast fibers); test: Activation of fast skeletal myofibrils (PUMA coupled-enzyme ATPase assay); format: biochemical; details: concentration at which the compound increased the enzymatic activity by 40%; calcium at pCa25; PM12 buffer pH 6.8
Method: Preparation of fast skeletal myofibrils: Rabbit skeletal myofibrils were prepared based upon the method of Herrmann et al. (Biochem. 32 (28): 7255-7263 (1993). Myofibrils were prepared from rabbit psoas muscle purchased from Pel-Freez Biologicals (Arkansas) within 2 days of ordering, stored on ice. Minced muscle was homogenized in 10 volumes of ice-cold “standard” buffer (50 mM Tris, pH 7.4, 0.1 M KOAc, 5 mM KCl, 2 mM dithiothreitol (DTT), 0.2 mM phenylmethylsulfonyl fluoride (PMSF), 10 μM leupeptin, 5 μM pepstatin, and 0.5 mM sodium azide) containing 5 mM ethylenediaminetetraacetic acid (EDTA) and 0.5% Triton X-100 using an Omni-Macro homogenizer. Myofibrils were recovered by low speed centrifugation (3000 rpm for 10 minutes) and washed 2 times in the Triton X-100 containing buffer to ensure removal of cellular membrane. Following the Triton washes, myofibrils were washed 3 times in “standard” buffer containing 2 mM magnesium acetate. A final wash in assay buffer (12 mM piperazine-1,4-bis(2-ethanesulfonic acid) (PIPES), pH 6.8, 60 mM KCl, 1 mM DTT) was performed and brought to 10% sucrose for flash freezing in liquid nitrogen and storage at −80° C.
Activation of Fast Skeletal Myofibrils: Fast fiber activators were identified by measuring the enzymatic activity of muscle myofibril preparations using the proprietary PUMA (trademark) (see, e.g., U.S. Pat. Nos. 6,410,254, 6,743,599, 7,202,051, and 7,378,254) assay system. Myofibril preparations consisted of rabbit skeletal muscle (approximately 90% fast fibers) that had been mechanically homogenized and washed with a detergent (Triton X-100) to remove cellular membranes. This preparation retained all of the sarcomeric components in a native conformation and the enzymatic activity was still regulated by calcium. Compounds were tested using a myofibril suspension and a level of calcium sufficient to increase enzymatic activity of the myofibrils to 25% of their maximal rate (termed pCa25). Enzymatic activity was tracked via a pyruvate kinase and lactate dehydrogenase-coupled enzyme system. This assay regenerates myosin-produced ADP into ATP by oxidizing NADH, producing an absorbance change at 340 nm. The buffering system was 12 mM PIPES, 2 mM MgCl2, 1 mM DTT at pH 6.8 (PM12 buffer). […] In Table 3, “Example Compound” refers to the compound labeled with the same number in Table 2.

Compound | AC1.4 [µM]
CCC[C@H]1C(=O)Nc2ccccc2N1C(=O)c1ccc(N(C)Cc2ccccc2)nc1 [Compound 39, (S)-4-(6-(benzyl(methyl)amino)nicotinoyl)-3-propyl-3,4-dihydroquinoxalin-2(1H)-one] | 0.27
CCC[C@H]1C(=O)Nc2ccccc2N1C(=O)c1ccc(N2CC(OC)C2)nc1 [Compound 40, (S)-4-(6-(3-methoxyazetidin-1-yl)nicotinoyl)-3-propyl-3,4-dihydroquinoxalin-2(1H)-one] | 2.37
CCC[C@H]1C(=O)Nc2ccccc2N1C(=O)c1ccc(N2CCC(F)C2)nc1 (stereo partly drawn) [Compound 41, (3S)-4-(6-(3-fluoropyrrolidin-1-yl)nicotinoyl)-3-propyl-3,4-dihydroquinoxalin-2(1H)-one] | 1.63
CCC[C@H]1C(=O)Nc2ccccc2N1C(=O)c1ccc(N2CC(F)(F)C2)nc1 [Compound 42, (S)-4-(6-(3,3-difluoroazetidin-1-yl)nicotinoyl)-3-propyl-3,4-dihydroquinoxalin-2(1H)-one] | 2.34
CCC[C@H]1C(=O)Nc2ccccc2N1C(=O)c1ccc(N2CCC(F)(F)C2)nc1 [Compound 43, (S)-4-(6-(3,3-difluoropyrrolidin-1-yl)nicotinoyl)-3-propyl-3,4-dihydroquinoxalin-2(1H)-one] | 2.78
CCC[C@H]1C(=O)Nc2ccccc2N1C(=O)c1ccc(N(C)CCC(F)(F)F)nc1 [Compound 44, (S)-4-(6-(methyl(3,3,3-trifluoropropyl)amino)nicotinoyl)-3-propyl-3,4-dihydroquinoxalin-2(1H)-one] | 2.61
CCC[C@H]1C(=O)Nc2ccccc2N1C(=O)c1cn(C)nc1C [Compound 45, (S)-4-(1,3-dimethyl-1H-pyrazole-4-carbonyl)-3-propyl-3,4-dihydroquinoxalin-2(1H)-one] | 0.2
CCC[C@H]1C(=O)Nc2ccccc2N1C(=O)NC1CCCCC1 [Compound 46, (S)-N-cyclohexyl-3-oxo-2-propyl-3,4-dihydroquinoxaline-1(2H)-carboxamide] | 0.47
CCC[C@H]1C(=O)Nc2ccccc2N1C(=O)Nc1cccnc1 [Compound 47, (S)-3-oxo-2-propyl-N-(pyridin-3-yl)-3,4-dihydroquinoxaline-1(2H)-carboxamide] | 1.51
CCC[C@H]1C(=O)Nc2ccccc2N1C(=O)Nc1ccncc1 [Compound 48, (S)-3-oxo-2-propyl-N-(pyridin-4-yl)-3,4-dihydroquinoxaline-1(2H)-carboxamide] | 1.08
CCC[C@H]1C(=O)Nc2ccccc2N1C(=O)NCc1ccccc1 [Compound 49, (S)-N-benzyl-3-oxo-2-propyl-3,4-dihydroquinoxaline-1(2H)-carboxamide] | 2.08
CCC[C@H]1C(=O)Nc2ccccc2N1C(=O)N[C@@H](C)c1ccccc1 [Compound 50, (S)-3-oxo-N-((S)-1-phenylethyl)-2-propyl-3,4-dihydroquinoxaline-1(2H)-carboxamide] | 2.36
CCC[C@H]1C(=O)Nc2ccccc2N1C(=O)NCC1CCCCC1 [Compound 51, (S)-N-(cyclohexylmethyl)-3-oxo-2-propyl-3,4-dihydroquinoxaline-1(2H)-carboxamide] | 0.48
CCC[C@H]1C(=O)Nc2ccccc2N1C(=O)N1CCc2ccccc21 [Compound 52, (S)-4-(indoline-1-carbonyl)-3-propyl-3,4-dihydroquinoxalin-2(1H)-one] | 0.58
CCC[C@H]1C(=O)Nc2ccccc2N1C(=O)Nc1ccccc1OC [Compound 53, (S)-N-(2-methoxyphenyl)-3-oxo-2-propyl-3,4-dihydroquinoxaline-1(2H)-carboxamide] | 0.55
CCC[C@H]1C(=O)Nc2ccccc2N1C(=O)Nc1cccc(OC)c1 [Compound 54, (S)-N-(3-methoxyphenyl)-3-oxo-2-propyl-3,4-dihydroquinoxaline-1(2H)-carboxamide] | 0.31
